From patent US20050196806A1, “Prostate specific antigen oligoepitope peptide” (The Government of the USA, as represented by the Secretary, …, priority 1996, published 2005)
“And” between values parts separate entries of the source, which are not always exact repeats. Identical values can stand only once. Marks after values point to notes of the source that are not given here.

Tests used:
CIR-A2 cells = assay: CTL activity of PSA-OP specific T cell lines against peptide pulsed CIR-A2 cells; type: cell-based, human; details: effector T/PSA-OP-1; 50 μg/ml peptide for 3 h; 18 h CTL assay; E:T ratio 25:1; No peptide 7.9(2.7)
Experimental: Peripheral blood mononuclear cells (PBMCs) were obtained from heparinized blood of healthy HLA-A2 donors using a lymphocyte separation medium gradient (Organon Technika, Durham, N.C.). The mononuclear cell fraction was washed 3 times and PBMCs were resuspended in complete medium: AIM V (Life Technologies, Inc.) supplemented with 5% human AB serum (Valley Biomedical, Winchester, Va.), 2 mM glutamine, 100 U/ml of penicillin, and 100 μg/ml of streptomycin (GIBCO). Cells (2×10^5) in complete medium in a volume of 100 μl were put into each well of a 96-well flat-bottom assay plate (Corning, Costar Corp., Cambridge, Mass.). Peptides were added to cultures at a final concentration of […]. Cultures were incubated for 5 days at 37° C. in a humidified atmosphere containing 5% CO2. […]
Various target cells were labeled with 50 μCi of ^111In-oxyquinoline (Medi-Physics Inc., Arlington, Ill.) for 15 minutes at room temperature. […] Determinations were carried out in triplicate and standard deviations were calculated. […] Specific Lysis was calculated using the following formula: % of Specific Release=observed release(cpm)−spontaneous release(cpm) total releae(cpm)−spontaneous release(cpm)×100
Spontaneous release was determined from wells to which 100 μl of complete medium, instead of effector cells was added. Total releasable radioactivity was obtained after treatment of target cells with 2.5% Triton X-100.

T2 cells = assay: Cytotoxic assay of PSA peptide specific T cells against T2 cells; type: cell-based, human; details: 24 hour assay, E:T ratio 25:1
[1] = test system: LNCAP PSA expressing human prostate cancer cell line; assay: Cytotoxic assay of PSA peptide specific T cells against LNCAP (Example III); type: cell-based; details: T-Donor A T-cell line; 24 hour assay, E:T ratio 25:1; listed as 141-150
Source text: (§1) Four of the T cell lines derived from three different individuals were then assays for their ability to lyse human cells (Table 9). […] No lysis was seen using the PSA negative human colon cancer cell line COLO-205. While 80% lysis was seen using the LNCAP PSA expressing human prostate cancer cell line. When employing the NK target K562, which measures non-specific lysis due to NK cell activity, only 23% lysis was obtained. Similar results were seen employing a different T cell line obtained from the same patient which was derived from pulsing with PSA peptide 154-163. Two additional T cell lines which were derived from peptide 154-163 were also analyzed. One was from a normal donor (T-1538) and one was from a prostate cancer patient (T-PC2; T Donor C).

[2] = biological target: T1, HLA class-I A2001 molecule (Homo sapiens, UniProt P04439, D140Y/D185E/D98H/E176V/E277Q/G131W/G231S/I119V/I121R/I166T/I218V/L300P/L318F/N151K/N90K/P208A/P217A/Q86G/Q94H/R138H/R169H/T345S); assay: Peptide binding to HLA-A2: upregulation on T2 cells by flow cytometry (Example IV); details: T2 cells incubated 24 h with peptide 50 μg/ml/10^6 cells; 100 cut off value for positivity; None = 16.88
T1 construct: endogenous in cells; host or cells: T2 cells (174CEM.T2, transport deletion mutant)
Experimental: 1×10^6 cells in serum-free IMDM were incubated with peptides at the concentration of 50 μg/ml in 24-well culture plates at 37° C. in 5% CO2. Flow cytometry for peptide binding was performed using T2 cells and single color analysis. After cells were washed three times in DPBS as above, they were incubated for 1 hr with HLA-A2 specific MAb A2,69 (One lambda, Inc., Canoga Park, Calif.), using 10 μl of a 1× working dilution per 10^6 cells. MOPC-21 (Cappel/Organon Teknika Corp.) was used as isotype control. The cells were then washed three times and incubated with 1:100 dilution of fluorescein (FITC) labeled anti-mouse IgG (Kirkegaard & Perry, Gaithersburg, Md.). Analysis was carried out using the FACScan as described above. Cells were maintained on ice during all cell preparation and staining unless otherwise stated.

NK target K562 = assay: Cytotoxic assay of PSA peptide specific T cells against K562; type: cell-based, human; details: T-Donor A T-cell line; 24 hour assay, E:T ratio 25:1
Source text: as §1

[3] = test system: PBLs isolated from male HLA-A2001+ donors; assay: Limiting dilution analysis of CTL precursor frequency; type: cell-based, human; details: for Number of precursors (precursor frequency): calculated by X^2 minimization; for % of negative microcolonies, 10,000: two cycles of stimulation with the peptide, targets CIRA2 pulsed 3 h, cold K562
Experimental: Limiting dilution assays were used for the determination of precursor frequencies to PSA-1, PSA-3 and PSA-OP. Various number of PBMCs were seeded in 96-well flat bottom plates (Coming Costar) with 1×10^4 autologous PBMC irradiated with 4,000 rads and incubated with 50 μg/ml of PSA peptide. Cells were cultured in complete medium as described previously. At least 48 cultures were set up for each dilution. Cultures were incubated for 5 days at 37° C. in a humidified atmosphere containing 5% CO2 and then provided with fresh medium containing human IL-2 for 11 days, with IL-2-containing medium being replenished every 72 hr as shown below for CTLs generation. After two cycles of stimulation specific cytotoxic activity was tested for each single well, against CIR-A2 target cells with or without incubation with peptide. Cytotoxic assays were similar to the method described above. The unlabelled K562 cells were added to the microwells containing responder cells. After 1 hr incubation at 37° C. target cells were added into each well and incubated for 6 hrs at 37° C. Precursor frequencies were calculated by X^2 minimization.

human HLA A2 molecules = biological target: T2, human HLA A2 molecules (Homo sapiens, UniProt P04439, D140Y/D185E/D98H/E176V/E277Q/G131W/G231S/I119V/I121R/I166T/I218V/L300P/L318F/N151K/N90K/P208A/P217A/Q86G/Q94H/R138H/R169H/T345S); assay: T2 cell binding assay (PSA peptide binding assay, Example II); details: peptides at 50 μg/ml, None = 127.25
T2 construct: endogenous in cells; host or cells: T2 cells (174CEM.T2)
Source text: The amino acid sequence of human PSA was scanned using a predictive algorithm that combines a search for anchor residues with numerical assignments to all residues at all positions. The T2 cell binding assay was then used to determine which peptides bound human HLA A2 molecules. […] Table 7 gives the amino acid sequence of these peptides and compares them to corresponding sequences of HGK and PKA.

Sequence: FLTPKKLQCV [PSA-1, ID No. 1]
- % of Specific release (SD), CIR-A2 cells pulsed with the peptide (CIR-A2 cells): 8.4(4.0) %
- % specific release (lysis), T2 (T2 cells; T-Donor A T-cell line derived with the peptide, 111In release): 10^a %
- % specific release (lysis), T2 + peptide (T2 cells; T-Donor A T-cell line): 40^b %
- % specific release (lysis), LNCAP [1]: 80% and 80^b %
- T2 binding: relative fluorescence (mean intensity) with anti-HLA-A2 mAb [2]: 127.73
- % specific release (lysis), K562 (NK target K562): 23%
- % of negative microcolonies, 500 ([3]; T/PSA-OP 2 donor): 95.8%
- % of negative microcolonies, 1,000 ([3]; T/PSA-OP 2 donor): 93.7%
- % of negative microcolonies, 5,000 ([3]; T/PSA-OP 2 donor): 75.0%
- Number of precursors (precursor frequency) ([3]; T/PSA-OP 2 donor): 1/14695
- % of negative microcolonies, 10,000 ([3]; T/PSA-OP 2 donor): 47.9%
- % of negative microcolonies, 500 ([3]; T/PSA-OP 3 donor): 100.0%
- % of negative microcolonies, 1,000 ([3]; T/PSA-OP 3 donor): 100.0%
- % of negative microcolonies, 5,000 ([3]; T/PSA-OP 3 donor): 97.9%
- Number of precursors (precursor frequency) ([3]; T/PSA-OP 3 donor): 1/181480
- % of negative microcolonies, 10,000 ([3]; T/PSA-OP 3 donor): 93.7%
- MAb A2, 69: Mean channel fluorescent intensity (human HLA A2 molecules; listed as 141-150): positive
- MAb A2, 69: Mean channel fluorescent intensity (human HLA A2 molecules; listed as PSA 141-150): 230.34
